Usually KD stands for the free concentration of one partner at which half of the binding sites on the other are occupied at equilibrium, for simple one-to-one binding. Low values mean higher affinity, high ones lower affinity. The IC50 is the concentration that inhibits the measured activity by half. Low values mean inhibition by little substance, high ones a need for much substance. For orientation: Kd means the equilibrium constant for the complex coming apart. The low end stands for tighter binding, the high end for weaker binding.

Data set [1] deals with 5′-biotinylated dsDNA oligomer (DNA, duplex) TGTAATCGTAGGTTGGTCCCATCACCCACC/GGTGGGTGATGGGACCAACCTACGATTACA
Kind of data set: SPR biosensor kinetics, immobilised DNA. To be noted: PBS buffer; monoexponential fit, single site. On the technique in general: In SPR one partner is held on a chip, and binding of the other changes the refractive index at the surface.

Data set [2] deals with MCF7 human breast adenocarcinoma cells. Put plainly: MTT cytotoxicity assay, MCF7 cells. The data set is classed as cell-based. To be noted: for IC50: MTT, 72 h exposure, mean ± SD of three experiments; for SI MCF7 MCF10A: selectivity index, values equal IC50 MCF10A / IC50 MCF7. As to the method: (§1) The stability of [1]-Cl-[4]-Cl was evaluated in aqueous phosphate-buffered solution (PBS, pH 7.4) using UV–visible spectroscopy. […] The cytotoxicity of the compounds was measured according to a standard MTT assay against human breast cancer (MCF7 and MCF7CR) and ovarian cancer (A2780 and A2780cis) cell lines, and also nontumorigenic MCF10A and human embryonic kidney HEK293T cells (Table ).
(§2) All cell lines were grown in a humidified 5% CO2 environment at 37 °C in dedicated media. Growth media comprised minimum essential medium (MEM) supplemented with 10% FBS, 1% sodium pyruvate, antibiotics, and antimycotic agents for MCF7. MCF10A cells were cultured in a DMEM/F12 Ham’s mixture supplemented with 5% equine serum, 20 ng/mL EGF, 10 μg/mL insulin, […], antibiotics, and antimycotics. MCF7-CR cells were grown in minimum essential medium (MEM), 10% FBS supplemented with 0.1 mg/mL cisplatin, sodium pyruvate, antibiotics, and antimycotics. A2780 and A2780cis cells were cultured in RPMI 1640 GlutaMAX, and HEK293T cells were cultured in DMEM GlutaMAX medium containing 10% heat-inactivated FBS and antibiotics. The effect exerted on cell viability by the compounds was determined using the 3-(4,5-dimethylthiazol-2-yl)-2,5-diphenyltetrazolium bromide (MTT) assay. After individual treatments with 0–100 μM of the compound for 72 h, MTT was added to the culture media at a final concentration of 0.5 mg/mL and incubated for 2 h at 37 °C. Cisplatin was used as a positive control. The medium was replaced with 100 μL of DMSO, and after 10 min, the optical density was recorded at 550 nm on a microplate reader. At least six cultures were used for each data point. Chemicals (Merck-Sigma, Milan, Italy) and plasticware (Corning, Milan, Italy) were cell culture grade.
(Tetrazolium dyes change colour on reduction, which living cells bring about.)

For data set [3], the system named is A2780cis cisplatin-resistant ovarian cancer cells. Kind of data set: MTT cytotoxicity assay, A2780cis cells. Type of data set: cell-based, human. To be noted: 72 h exposure, mean ± SD of three experiments. As to the method:
as §1, §2

The test system of data set [4] is A2780 human ovarian carcinoma cells. Put plainly: MTT cytotoxicity assay, A2780 cells. Type of data set: cell-based. Particulars: for IC50: MTT, 72 h exposure, mean ± SD of three experiments; for SI A2780 HEK293T: selectivity index, values equal IC50 HEK293T / IC50 A2780. The procedure: as §1, §2
In data set [5] the test system is HEK293T human embryonic kidney cells. Put plainly: MTT cytotoxicity assay, HEK293T cells. The data set is classed as cell-based. To be noted: 72 h exposure, mean ± SD of three experiments. As to the method:
as §1, §2

Data set [6] relates to MCF7-CR cisplatin-resistant breast cancer cells. Kind of data set: MTT cytotoxicity assay, MCF7CR cells. Type of data set: cell-based, human. To be noted: 72 h exposure, mean ± SD of three experiments. As to the method:
as §1, §2

Data set [7] has as its target 20S proteasome trypsin-like activity (Homo sapiens, UniProt Q99436). Kind of data set: Isolated 20S proteasome, trypsin-like activity (Z-Leu-Ser-Thr-Arg-AMC). Type of data set: biochemical. Particulars: for IC50: 0–100 μM, 1 h, 37 °C, pH 8.0. The procedure: (§3) Proteasome inhibition by the compounds was evaluated with respect to three major activities of the 20S proteasome, namely, chymotrypsin-like, trypsin-like, and caspase-like activities.
(§4) The effect of the compounds on the activity of the isolated 20S proteasome was tested using specific synthetic fluorogenic peptide substrates (Suc-Leu-Leu-Val-Tyr-AMC, Z-Leu-Ser-Thr-Arg-AMC, and Z-Leu-Leu-Glu-AMC for chymotrypsin-like, trypsin-like, and peptidyl glutamyl peptide hydrolase activity, respectively) as reported elsewhere. Briefly, individual mixtures consisting of the compounds (0–100 μM), 1 μg of isolated 20S proteasome, the specific substrate, and 50 mM Tris–HCl pH 8.0 up to a final volume of 100 μL were incubated at 37 °C, and after 1 h, the fluorescence measurements of the hydrolyzed AMC were recorded on a SpectraMax Gemini XPS microplate reader (λexc = 365 nm, λem = 449 nm).

For another data set, the system named is dsDNA oligomer. Put plainly: SPR biosensor binding to surface-anchored dsDNA oligomer. Particulars: surface-blocked DNA oligomer; for Kd: equilibrium dissociation constant. As to the method: The DNA binding ability of curcuminoid ligands and their complexes was evaluated by using a Surface plasmon resonance (SPR) biosensor. The monoexponential nature of binding kinetics for all the compounds is consistent with the presence of a single high-affinity site on DNA (Figure ).
The binding kinetics/affinities of the molecules of interest for DNA were studied according to a previously described biosensor-based method. Briefly, streptavidin was anchored to a carboxylate surface via EDC/NHS chemistry, and 5′-biotinylated dsDNA oligomer (sequence: 3′-[…]-5′) was coupled to surface-blocked streptavidin. Compounds were independently added to the DNA-coated surface at different concentrations, each time following binding kinetics up to equilibrium. PBS buffer was used for both the dissociation and the regeneration steps. Experimental data were fitted to both mono- and biexponential models, and the validity of each model was assessed by a standard F-test procedure. The binding sites on DNA were mapped according to independent competitive binding assays individually using a minor groove binder (GelRed) and a major groove binder (methyl green), respectively. Briefly, GelRed displacement was monitored by comparing the emission spectra of solutions containing different concentrations of curcuminoid-like ligands/complexes (0–100 μM), 20 μM DNA, and GelRed (10 μM) in 10 mM phosphate buffer, pH 7.4. Similarly, methyl green displacement assay was performed by monitoring the absorbance at 630 nm upon addition of candidate competitors (0–100 μM), 100 μM DNA, and methyl green (10 μM) in 50 mM Tris–HCl buffer and 7.5 mM MgSO4, pH 7.5.

The nature of data set [8]: Solubility in water (qualitative). The data set is classed as physicochemical.
Data set [9] relates to MCF10A nontumorigenic cells. Put plainly: MTT cytotoxicity assay, MCF10A cells. To be noted: 72 h exposure, mean ± SD of three experiments. Type of data set: cell-based, human. The procedure:
as §1, §2

For data set [10], the target named is 20S proteasome PGPH (caspase-like) activity (Homo sapiens, UniProt P28072). Put plainly: Isolated 20S proteasome, peptidyl glutamyl peptide hydrolase (caspase-like) activity (Z-Leu-Leu-Glu-AMC). To be noted: 0–100 μM, 1 h, 37 °C, pH 8.0. Type of data set: biochemical. The procedure: as §3, §4
The target in data set [11] is 20S proteasome chymotrypsin-like activity (Homo sapiens, UniProt P28074). Kind of data set: Isolated 20S proteasome, chymotrypsin-like activity (Suc-Leu-Leu-Val-Tyr-AMC). The data set is classed as biochemical. To be noted: 0–100 μM, 1 h, 37 °C, pH 8.0. The procedure: as §3, §4

A value given as a limit tells only on which side of the number the result lay.

For `COc1cc(/C=C/c2cc(/C=C/c3ccc(O)c(OC)c3)n(-c3ccccn3)n2)ccc1O`, the KD in [1] stood at 4.5 ± 2.7 µM.
In turn, `COc1cc(/C=C/c2cc(/C=C/c3ccc(O)c(OC)c3)n(-c3ccccn3)n2)ccc1O.Cc1ccc(C(C)C)cc1.[Cl-].[Os+2]` gave a KD in [1] of 4.2 ± 1.8 µM.
Molecule `COc1cc(/C=C/c2cc(/C=C/c3ccc(O)c(OC)c3)n(-c3ccccn3)n2)ccc1O.Cc1ccc(C(C)C)cc1.[Cl-].[Ru+2]` gave a KD in data set [1] of 0.29 ± 0.14 µM.
`Cc1ccc(C(C)C)cc1.Oc1ccc(/C=C/c2cc(/C=C/c3ccc(O)cc3)n(-c3ccccn3)n2)cc1.[Cl-].[Os+2]` returned a KD in data set [1] of 39.2 ± 17.0 µM.
Consider `Cc1ccc(C(C)C)cc1.Oc1ccc(/C=C/c2cc(/C=C/c3ccc(O)cc3)n(-c3ccccn3)n2)cc1.[Cl-].[Ru+2]`, for which, in [1], the KD is 2.2 ± 1.5 µM.
Take `Oc1ccc(/C=C/c2cc(/C=C/c3ccc(O)cc3)n(-c3ccccn3)n2)cc1`: the KD in data set [1] amounted to 17.0 ± 7.3 µM.
For `N.N.[Cl][Pt][Cl]` [Cisplatin, reference compound], the IC50 was 4.2 ± 2.3 µM in data set [2]; 7 ± 1 µM in [3]; 0.25 ± 0.02 µM in data set [4]; 2.8 ± 0.5 µM in data set [5]; 49.1 ± 7 µM in data set [6].
As to `COc1cc(/C=C/c2cc(/C=C/c3ccc(O)c(OC)c3)n(-c3ccccn3)n2)ccc1O` [HZPcurc, 4,4′-((1E,1′E)-(1-(pyridin-2-yl)-1H-pyrazole-3,5-diyl)bis(ethene-2,1-diyl))bis(2-methoxyphenol)], the IC50 in [7] is over 100 µM; in data set [2] (Homo sapiens, MCF7) it was 23 ± 6 µM; in data set [3] (Homo sapiens, A2780cis) it was 6.7 ± 0.6 µM; in data set [4] (Homo sapiens, A2780) it was 5.3 ± 0.4 µM; in data set [9] (Homo sapiens, MCF-10A), 7 ± 4.5 µM; in data set [10], over 100 µM. Besides, the IC50 in data set [5] (Homo sapiens, HEK-293T) is 16.4 ± 0.6 µM; in [11], over 100 µM; in data set [6] (Homo sapiens), 17.7 ± 3.6 µM. Further, the “SI MCF7 MCF10A” value in data set [2] was 0.30. The molecule also had a kass with dsDNA oligomer of 2994 ± 1142 M^–1s^–1. On dsDNA oligomer, this molecule gave a kdiss of 0.013 ± 0.009 s^–1. The molecule also came in with a Kd on dsDNA oligomer of 4.5 ± 2.7 µM. For the same molecule, in data set [8], the solubility in water result is reported as “insoluble in H2O”. Moreover, the “SI A2780 HEK293T” value in [4] worked out at 3.10.
Regarding `COc1cc(/C=C/c2cc(/C=C/c3ccc(O)c(OC)c3)n(-c3ccccn3)n2)ccc1O.Cc1ccc(C(C)C)cc1.[Cl-].[Cl][Ru+]` [[1]Cl, [Ru(p-cym)(HZPcurc)Cl]Cl], in [7], the “inhibition of the trypsin-like activity (in words)” value (shortened to “inhibition”) is “inhibition of the trypsin-like activity”. The IC50 is 63 ± 7 µM in data set [7]; 49.2 ± 5 µM in [2]; 6.6 ± 0.9 µM in data set [3]; 4.6 ± 0.3 µM in data set [4]; 31.7 ± 10 µM in [9]; over 100 µM in [10]. In addition, the IC50 was 25 ± 1 µM in [5], over 100 µM in data set [11] and 41 ± 10 µM in [6]. Further, the “SI MCF7 MCF10A” value in [2] was found to be 0.64. Also, the kass in the data set with dsDNA oligomer was 32082 ± 773 M^–1s^–1. At dsDNA oligomer, this molecule returned a kdiss of 0.009 ± 0.004 s^–1. On dsDNA oligomer, this molecule had a Kd of 0.29 ± 0.14 µM. For the same molecule, the solubility in water result in data set [8] is listed as “soluble in polar solvents, including H2O”. For the same molecule, the “SI A2780 HEK293T” value in data set [4] stood at 5.43.
For `COc1cc(/C=C/c2cc(/C=C/c3ccc(O)c(OC)c3)n(-c3ccccn3)n2)ccc1O.Cc1ccc(C(C)C)cc1.[Cl-].[Cl][Os+]` [[2]Cl, [Os(p-cym)(HZPcurc)Cl]Cl], in data set [7], the “inhibition” value was “inhibition of the trypsin-like activity”. The IC50 in data set [7] is 51 ± 13 µM; in [2], over 100 µM; in data set [3], 12.1 ± 0.6 µM; in [4], 6.3 ± 0.5 µM; in data set [9], 25.6 ± 15 µM; in [10], over 100 µM. The results for the IC50 in data set [5], in data set [11] and in [6] were 25 ± 8 µM, 84 ± 60 µM and over 100 µM, respectively. Also, in the data set on dsDNA oligomer, the kass was determined as 1156 ± 179 M^–1s^–1. This molecule also had a kdiss on dsDNA oligomer of 0.005 ± 0.002 s^–1. Also, the Kd on dsDNA oligomer is 4.2 ± 1.8 µM. Besides, the solubility in water entry in data set [8] is “completely soluble”. The “SI A2780 HEK293T” value in data set [4] stood at 3.97.
Take `Cc1ccc(C(C)C)cc1.Oc1ccc(/C=C/c2cc(/C=C/c3ccc(O)cc3)n(-c3ccccn3)n2)cc1.[Cl-].[Cl][Os+]` [[4]Cl, [Os(p-cym)(HZPbdcurc)Cl]Cl]: in [7], the “inhibition” value is “inhibition of the trypsin-like activity”. The IC50 in [7] is 61 ± 44 µM; in data set [2] it was over 100 µM; in [3], 5.4 ± 0.3 µM; in data set [4], 2.4 ± 0.4 µM; in [9] it was 25.8 ± 10 µM; in data set [10], over 100 µM. Besides, the half-maximal inhibitory concentration (IC50) in [5] was 32 ± 2 µM; in data set [11], 98 ± 50 µM; in data set [6], over 100 µM. For the same molecule, in the data set on dsDNA oligomer, the kass stood at 266 ± 102 M^–1s^–1. At dsDNA oligomer, this molecule yielded a kdiss of 0.010 ± 0.002 s^–1. Further, the Kd on dsDNA oligomer amounted to 39.2 ± 17 µM. For the same molecule, in data set [8], the solubility in water result is “partly soluble in H2O”. Also, in data set [4], the “SI A2780 HEK293T” value stood at 13.33.

Source of the values: PMC12153055 (Organometallics, 2025).
